Key:
[1] = test system: HeLa cells; assay: Luciferase Protein Expression Assay in HeLa Cells; assay type: cell-based, Human; settings: LNPs encapsulating Luciferase mRNA, 25 ng per well, N=4 wells; 5 h serum-free then 24 h; ONE-Glo
Summary of the method: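 HeLa cells received LNPs carrying luciferase mRNA (25 ng per well) or PBS in serum-free MEM for 5 h, then complete MEM for a further 24 h. Luciferase then read by ONE-Glo luminescence after lysis and reported as average RLU of 4 replicate wells.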

[2] = test system: HeLa cells; assay: CFTR Protein Expression Assay in HeLa Cells; assay type: cell-based, Human; settings: LNPs encapsulating CFTR mRNA, N=4 wells; 5 h serum-free then 24 h; immunofluorescence vs PBS control
Summary of the method: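 HeLa cells dosed with CFTR mRNA LNPs (70 mM NaCl final buffer matrix) in serum-free MEM for 5 h, then complete MEM for 24 h. Fixed cells immunostained with anti-CFTR monoclonal and Alexa 488 secondary, imaged confocally; CFTR intensity per cell expressed as fold-change versus PBS buffer control, N=4 wells.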

[3] = Encapsulation of mRNA nanoparticles with lipid amines using Ribogreen assay; assay type: physicochemical
Summary of the method: (§1)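 Ionizable lipid nanoparticles (IL1:DSPC:cholesterol:PEG-DMG-2K) formed by vortex mixing at pH 4, loaded with luciferase or CFTR mRNA at N:P 4.93, neutralized with TRIS pH 8.12, then modified with lipid amine SA50 at pH 7.5. Particle diameter and PDI read by DLS; mRNA encapsulation by Ribogreen assay.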

[4] = Diameter and PDI from DLS measurements of mRNA nanoparticles with lipid amines; assay type: physicochemical
Summary of the method: as §1

[5] = CFTR mRNA nanoparticle with lipid amine
[6] = Luciferase mRNA nanoparticle modified with lipid amine

SMILES: CC(C)CCC[C@@H](C)[C@H]1CC[C@H]2[C@@H]3CC=C4C[C@@H](OC(=O)[C@H](CCCCN)NCCCCCCN)CC[C@]4(C)[C@H]3CC[C@]12C.Cl.Cl.Cl [SA131, (3S,8S,9S,10R,13R,14S,17R)-10,13-dimethyl-17-((R)-6-methylheptan-2-yl)-2,3,4,7,8,9,10,11,12,13,14,15,16,17-tetradecahydro-1H-cyclopenta[a]phenanthren-3-yl (6-aminohexyl)-L-lysinate trihydrochloride]
- Average Relative Light Units ± Standard Deviation [1]: 40915.5 ± 4983.3 Relative Light Units
- Average fold-change in CFTR signal intensity per cell compared to buffer control ± standard deviation [2]: 10.8 ± 0.5 fold-change
- % Encapsulation (Ribogreen) [3, 5]: 98.6%
- % Encapsulation (Ribogreen) [3, 6]: 99.6%
- Diameter (nm) [4, 5]: 83.8 nm
- PDI [4, 5]: 0.14
- Diameter (nm) [4, 6]: 72 nm
- PDI [4, 6]: 0.12

SMILES: CC(C)CCC[C@@H](C)[C@H]1CC[C@H]2[C@@H]3CC=C4C[C@@H](OC(=O)[C@H](CCCN)NCCCCCCN)CC[C@]4(C)[C@H]3CC[C@]12C.Cl.Cl.Cl [SA132, (3S,8S,9S,10R,13R,14S,17R)-10,13-dimethyl-17-((R)-6-methylheptan-2-yl)-2,3,4,7,8,9,10,11,12,13,14,15,16,17-tetradecahydro-1H-cyclopenta[a]phenanthren-3-yl (S)-5-amino-2-((6-aminohexyl)amino)pentanoate trihydrochloride]
- Average Relative Light Units ± Standard Deviation [1]: 131.6 ± 15.5 Relative Light Units
- Average fold-change in CFTR signal intensity per cell compared to buffer control ± standard deviation [2]: 1.6 ± 0.1 fold-change
- % Encapsulation (Ribogreen) [3, 5]: 96.8%
- % Encapsulation (Ribogreen) [3, 6]: 99.3%
- Diameter (nm) [4, 5]: 84.2 nm
- PDI [4, 5]: 0.15
- Diameter (nm) [4, 6]: 81 nm
- PDI [4, 6]: 0.41

SMILES: CCC(N)(CC)CCNCCCCN(CCC(N)(CC)CC)C(=O)O[C@H]1CC[C@@]2(C)C(=CC[C@H]3[C@@H]4CC[C@H]([C@H](C)CCCC(C)C)[C@@]4(C)CC[C@@H]32)C1.Cl.Cl.Cl [SA133, (3S,8S,9S,10R,13R,14S,17R)-10,13-dimethyl-17-((R)-6-methylheptan-2-yl)-2,3,4,7,8,9,10,11,12,13,14,15,16,17-tetradecahydro-1H-cyclopenta[a]phenanthren-3-yl (3-amino-3-ethylpentyl)(4-((3-amino-3-ethylpentyl)amino)butyl)carbamate trihydrochloride]
- Average Relative Light Units ± Standard Deviation [1]: 26696.2 ± 5831.4 Relative Light Units
- Average fold-change in CFTR signal intensity per cell compared to buffer control ± standard deviation [2]: 18.5 ± 0.8 fold-change
- % Encapsulation (Ribogreen) [3, 5]: 99.4%
- % Encapsulation (Ribogreen) [3, 6]: 99.0%
- Diameter (nm) [4, 5]: 73.5 nm
- PDI [4, 5]: 0.11
- Diameter (nm) [4, 6]: 73 nm
- PDI [4, 6]: 0.17

SMILES: CC(C)CCC[C@@H](C)[C@H]1CC[C@H]2[C@@H]3CC=C4C[C@@H](OC(=O)CCCC(=O)N(CCCN)CCCCCCCCN)CC[C@]4(C)[C@H]3CC[C@]12C.Cl.Cl [SA134, (3S,8S,9S,10R,13R,14S,17R)-10,13-dimethyl-17-((R)-6-methylheptan-2-yl)-2,3,4,7,8,9,10,11,12,13,14,15,16,17-tetradecahydro-1H-cyclopenta[a]phenanthren-3-yl 5-((8-aminooctyl)(3-aminopropyl)amino)-5-oxopentanoate dihydrochloride]
- Average Relative Light Units ± Standard Deviation [1]: 29194.3 ± 6336.9 Relative Light Units
- Average fold-change in CFTR signal intensity per cell compared to buffer control ± standard deviation [2]: 17.7 ± 0.9 fold-change
- % Encapsulation (Ribogreen) [3, 5]: 98.7%
- % Encapsulation (Ribogreen) [3, 6]: 99.5%
- Diameter (nm) [4, 5]: 74.1 nm
- PDI [4, 5]: 0.10
- Diameter (nm) [4, 6]: 72 nm
- PDI [4, 6]: 0.13

SMILES: CC[C@H](CC[C@@H](C)[C@H]1CC[C@H]2[C@@H]3CC=C4C[C@@H](OC(=O)CCCC(=O)N(CCCN)CCCCCCCCN)CC[C@]4(C)[C@H]3CC[C@]12C)C(C)C.Cl.Cl [SA135, (3S,8S,9S,10R,13R,14S,17R)-17-((2R,5R)-5-ethyl-6-methylheptan-2-yl)-10,13-dimethyl-2,3,4,7,8,9,10,11,12,13,14,15,16,17-tetradecahydro-1H-cyclopenta[a]phenanthren-3-yl 5-((8-aminooctyl)(3-aminopropyl)amino)-5-oxopentanoate dihydrochloride]
- Average Relative Light Units ± Standard Deviation [1]: 27499.8 ± 7269.5 Relative Light Units
- Average fold-change in CFTR signal intensity per cell compared to buffer control ± standard deviation [2]: 16.6 ± 1.5 fold-change
- % Encapsulation (Ribogreen) [3, 5]: 98.0%
- % Encapsulation (Ribogreen) [3, 6]: 99.3%
- Diameter (nm) [4, 5]: 73.5 nm
- PDI [4, 5]: 0.11
- Diameter (nm) [4, 6]: 71 nm
- PDI [4, 6]: 0.12

SMILES: CC[C@H](CC[C@@H](C)[C@H]1CC[C@H]2[C@@H]3CC=C4C[C@@H](OC(=O)CCCC(=O)N(CCCCNCCC(C)N)CCC(C)N)CC[C@]4(C)[C@H]3CC[C@]12C)C(C)C.Cl.Cl.Cl (stereo partly drawn) [SA136, (3S,8S,9S,10R,13R,14S,17R)-17-((2R,5R)-5-ethyl-6-methylheptan-2-yl)-10,13-dimethyl-2,3,4,7,8,9,10,11,12,13,14,15,16,17-tetradecahydro-1H-cyclopenta[a]phenanthren-3-yl 5-((3-aminobutyl)(4-((3-aminobutyl)amino)butyl)amino)-5-oxopentanoate trihydrochloride]
- Average Relative Light Units ± Standard Deviation [1]: 16245.8 ± 6554.6 Relative Light Units
- Average fold-change in CFTR signal intensity per cell compared to buffer control ± standard deviation [2]: 15.8 ± 1.4 fold-change
- % Encapsulation (Ribogreen) [3, 5]: 97.7%
- % Encapsulation (Ribogreen) [3, 6]: 99.7%
- Diameter (nm) [4, 5]: 76.9 nm
- PDI [4, 5]: 0.13
- Diameter (nm) [4, 6]: 75 nm
- PDI [4, 6]: 0.16

SMILES: CC[C@H](CC[C@@H](C)[C@H]1CC[C@H]2[C@@H]3CC=C4C[C@@H](OC(=O)CCCC(=O)N(CCCCNCCC(C)(C)N)CCC(C)(C)N)CC[C@]4(C)[C@H]3CC[C@]12C)C(C)C.Cl.Cl.Cl [SA137, (3S,8S,9S,10R,13R,14S,17R)-17-((2R,5R)-5-ethyl-6-methylheptan-2-yl)-10,13-dimethyl-2,3,4,7,8,9,10,11,12,13,14,15,16,17-tetradecahydro-1H-cyclopenta[a]phenanthren-3-yl 5-((3-amino-3-methylbutyl)(4-((3-amino-3-methylbutyl)amino)butyl)amino)-5-oxopentanoate trihydrochloride]
- Average Relative Light Units ± Standard Deviation [1]: 15239.8 ± 6248.1 Relative Light Units
- Average fold-change in CFTR signal intensity per cell compared to buffer control ± standard deviation [2]: 14.0 ± 0.8 fold-change
- % Encapsulation (Ribogreen) [3, 5]: 98.3%
- % Encapsulation (Ribogreen) [3, 6]: 99.6%
- Diameter (nm) [4, 5]: 76.3 nm
- PDI [4, 5]: 0.13
- Diameter (nm) [4, 6]: 79 nm
- PDI [4, 6]: 0.20

SMILES: CC(C)CCC[C@@H](C)[C@H]1CC[C@H]2[C@@H]3CC=C4C[C@@H](SSCCC(=O)N(CCCCNCCC(C)(C)N)CCC(C)(C)N)CC[C@]4(C)[C@H]3CC[C@]12C.Cl.Cl.Cl [SA138, N-(3-amino-3-methylbutyl)-N-(4-((3-amino-3-methylbutyl)amino)butyl)-3-(((3S,8S,9S,10R,13R,14S,17R)-10,13-dimethyl-17-((R)-6-methylheptan-2-yl)-2,3,4,7,8,9,10,11,12,13,14,15,16,17-tetradecahydro-1H-cyclopenta[a]phenanthren-3-yl)disulfaneyl)propanamide trihydrochloride]
- Average Relative Light Units ± Standard Deviation [1]: 22039.8 ± 8550.1 Relative Light Units
- Average fold-change in CFTR signal intensity per cell compared to buffer control ± standard deviation [2]: 12.1 ± 1.1 fold-change
- % Encapsulation (Ribogreen) [3, 5]: 96.4%
- % Encapsulation (Ribogreen) [3, 6]: 99.2%
- Diameter (nm) [4, 5]: 89.6 nm
- PDI [4, 5]: 0.12
- Diameter (nm) [4, 6]: 72 nm
- PDI [4, 6]: 0.19

From patent US20260109732A1, “LIPID AMINES” (ModernaTX, Inc., priority 2021, published 2026)
